# Assay results taken from patent publication US9540350B2, “1-substituted, 4-(substituted phenoxymethyl)-1,2,3-triazole compounds with antifungal properties and methods for preparation thereof” (FDC LIMITED, priority 2013, dated 2017).
# Tests used:
# C. tropicalis ATCC 750 = test: Antifungal susceptibility, broth dilution MIC (CLSI M27-A2); type: cell-based, Candida tropicalis; conditions: Candida tropicalis, ATCC750; C. tropicalis ATCC 750; broth dilution, RPMI 1640 with MOPS, 48 hours; read-out: Activity against organisms (MIC50) Ct01
# Protocol: (§1) The compounds of Formula 1 were tested for antifungal activity against Candida albicans, C. glabrata, C. krusei, C. tropicalis, Cryptococcus neoformans, Aspergillus fumigatus, A. niger and Fusarium proliferatum. In vitro evaluation of antifungal activity was performed by determining the minimum inhibitory concentration (MIC) following standard methods (CLSI: Reference method for broth dilution antifungal susceptibility testing of yeasts; Approved standard, second edition M27-A2, 2002; CLSI: Reference method for broth dilution antifungal susceptibility testing of filamentous fungi; Approved standard M38-A, 2002). Anti-fungal susceptibility testing of these anti-fungal compounds was done by broth dilution method using RPMI 1640 medium with MOPS buffer. Known anti-fungal agent fluconazole was used as positive control. End points were determined after 48 hours visually and by using spectrophotometer wherever necessary. Different dilutions were tried and various sets of experiments performed. The activity parameters are enumerated in Table 4.
# C. glabrata ATCC 90030 = test: as above; type: cell-based, Candida glabrata; conditions: Nakaseomyces glabratus, ATCC90030; C. glabrata ATCC 90030; broth dilution, RPMI 1640 with MOPS, 48 hours; read-out: Activity against organisms (MIC50) Cg01
# Protocol: as §1
# C. albicans ATCC 24433 = test: as above; type: cell-based; conditions: Candida albicans, ATCC24433; C. albicans ATCC 24433; broth dilution, RPMI 1640 with MOPS, 48 hours; read-out: Activity against organisms (MIC50) Ca01
# Protocol: as §1
# C. krusei ATCC 6258 = test: as above; type: cell-based, Candida krusei; conditions: Pichia kudriavzevii, ATCC6258; C. krusei ATCC 6258; broth dilution, RPMI 1640 with MOPS, 48 hours; read-out: Activity against organisms (MIC50) Ck01
# Protocol: as §1
# C. neoformans ATCC 34664 = test: as above; type: cell-based, Cryptococcus neoformans; conditions: Cryptococcus neoformans, ATCC34664; C. neoformans ATCC 34664; broth dilution, RPMI 1640 with MOPS, 48 hours; read-out: Activity against organisms (MIC50) Cn01
# Protocol: as §1
# A. fumigatus ATCC 46645 = test: Antifungal susceptibility, broth dilution MIC (CLSI M38-A); type: cell-based; conditions: Aspergillus fumigatus, ATCC46645; A. fumigatus ATCC 46645; broth dilution, RPMI 1640 with MOPS, 48 hours; read-out: Activity against organisms (MIC50) Afm01
# Protocol: as §1
# [1] = test system: F. proliferatum ATCC 10052; test: as above; type: cell-based; conditions: Fusarium proliferatum, ATCC10052; F. proliferatum ATCC 10052; broth dilution, RPMI 1640 with MOPS, 48 hours; read-out: Activity against organisms (MIC50) Fp01
# Protocol: as §1
# A. niger ATCC 16404 = test: as above; type: cell-based; conditions: Aspergillus niger, ATCC16404; A. niger ATCC 16404; broth dilution, RPMI 1640 with MOPS, 48 hours; read-out: Activity against organisms (MIC50) An01
# Protocol: as §1
SMILES,MIC50 (C. tropicalis ATCC 750),MIC50 (C. glabrata ATCC 90030),MIC50 (C. albicans ATCC 24433),MIC50 (C. krusei ATCC 6258),MIC50 (C. neoformans ATCC 34664),MIC50 (A. fumigatus ATCC 46645),MIC50 [1],MIC50 (A. niger ATCC 16404)
"O=C(/C=C/c1ccc(OCc2cn(CC(O)(Cn3cncn3)c3ccc(F)cc3F)nn2)cc1)c1ccc(OCC(O)(Cn2cncn2)c2ccc(F)cc2F)cc1 (stereo not drawn) [Compound 1B-10, (E)-1-(4-(2-(2,4-Difluorophenyl)-2-hydroxy-3-(m-1,2,4-triazol-1-yl)propoxy)phenyl)-3-(4-((1-(2-(2,4-difluorophenyl)-2-hydroxy-3-(1H-1,2,4-triazol-1-yl)propyl)-1H-1,2,3-triazol-4-yl)methoxy)phenyl)prop-2-en-1-one]",1 µg/mL,0.5 µg/mL,0.25 µg/mL,2 µg/mL,1 µg/mL,> 2 µg/mL,> 2 µg/mL,> 2 µg/mL
"CCCCCCCCCC/C=C/c1ccc(OCc2cn(CC(O)(Cn3cncn3)c3ccc(F)cc3F)nn2)cc1 (stereo not drawn) [Compound 1C-3, (E)-2-(2,4-Difluorophenyl)-1-(4-((4-(n-dodec-1-en-1-yl)phenoxy)methyl)-1H-1,2,3-triazol-1-yl)-3-(1H-1,2,4-triazol-1-yl)propan-2-ol]",> 2 µg/mL,0.12 µg/mL,1 µg/mL,> 2 µg/mL,0.5 µg/mL,> 2 µg/mL,> 2 µg/mL,> 2 µg/mL
"Cc1cc(C#N)c(N)c(C#N)c1-c1ccc(OCc2cn(CC(O)(Cn3cncn3)c3ccc(F)cc3F)nn2)cc1 (stereo not drawn) [Compound 1D-6, 3-Amino-4′-((1-(2-(2,4-difluorophenyl)-2-hydroxy-3-(1H-1,2,4-triazol-1-yl)propyl)-1H-1,2,3-triazol-4-yl)methoxy)-6-methylbiphenyl-2,4-dicarbonitrile]",2 µg/mL,0.5 µg/mL,0.5 µg/mL,> 8 µg/mL,1 µg/mL,> 8 µg/mL,> 8 µg/mL,> 8 µg/mL
"C#CCOc1ccc(/C=C/C(=O)c2ccc(N3CCN(CCC)CC3)cc2)cc1 [Compound 6A-1, (E)-3-(4-(Prop-2-yn-1-yloxy)phenyl)-1-(4-(4-propylpiperazin-1-yl)phenyl)prop-2-en-1-one]",> 4 µg/mL,> 4 µg/mL,> 4 µg/mL,> 4 µg/mL,> 4 µg/mL,> 4 µg/mL,> 4 µg/mL,> 4 µg/mL
C#CCOc1ccc(/C=C/C(=O)c2ccc(N3CCN(CCCC)CC3)cc2)cc1 [Compound 6A-2],> 4 µg/mL,> 4 µg/mL,> 4 µg/mL,> 4 µg/mL,> 4 µg/mL,> 4 µg/mL,> 4 µg/mL,> 4 µg/mL
C#CCOc1ccc(/C=C/C(=O)c2ccc(N3CCN(Cc4ccc(OC)cc4)CC3)cc2)cc1 [Compound 6A-4],> 8 µg/mL,> 8 µg/mL,> 8 µg/mL,> 8 µg/mL,> 8 µg/mL,> 8 µg/mL,> 8 µg/mL,> 8 µg/mL
"OCc1cn(CC(O)(Cn2cncn2)c2ccc(F)cc2F)nn1 (stereo not drawn) [Compound 8A-1, 2-(2,4-Difluorophenyl)-1-(4-(hydroxymethyl)-1H-1,2,3-triazol-1-yl)-3-(1H-1,2,4-triazol-1-yl)propan-2-ol]",> 128 µg/mL,2 µg/mL,32 µg/mL,> 128 µg/mL,> 128 µg/mL,> 128 µg/mL,> 128 µg/mL,> 128 µg/mL
COc1ccc(/C=C/C(=O)c2ccc(OC)cc2)cc1 [Compound 9A-1],> 4 µg/mL,> 4 µg/mL,> 4 µg/mL,> 4 µg/mL,> 4 µg/mL,> 4 µg/mL,> 4 µg/mL,> 4 µg/mL
COc1ccc(/C=C/C(=O)c2ccc(O)cc2)cc1 [Compound 9A-2],> 32 µg/mL,> 32 µg/mL,> 32 µg/mL,> 32 µg/mL,> 32 µg/mL,> 32 µg/mL,> 32 µg/mL,> 32 µg/mL
COc1ccc(C(=O)/C=C/c2ccc(Cl)cc2)cc1 [Compound 9A-3],> 4 µg/mL,> 4 µg/mL,> 4 µg/mL,> 4 µg/mL,> 4 µg/mL,> 4 µg/mL,> 4 µg/mL,> 4 µg/mL

# The remaining lines, values ahead:
MIC50 (C. tropicalis ATCC 750),MIC50 (C. glabrata ATCC 90030),MIC50 (C. albicans ATCC 24433),MIC50 (C. krusei ATCC 6258),MIC50 (C. neoformans ATCC 34664),MIC50 (A. fumigatus ATCC 46645),MIC50 [1],MIC50 (A. niger ATCC 16404),SMILES
0.25 µg/mL,0.015 µg/mL,0.03 µg/mL,2 µg/mL,0.12 µg/mL,8 µg/mL,> 16 µg/mL,8 µg/mL,"CC/C=C/c1ccc(OCc2cn(CC(O)(Cn3cncn3)c3ccc(F)cc3F)nn2)cc1 (stereo not drawn) [Compound 1C-1, (E)-1-(4-((4-(But-1-en-1-yl)phenoxy)methyl)-1H-1,2,3-triazol-1-yl)-2-(2,4-difluorophenyl)-3-(1H-1,2,4-triazol-1-yl)propan-2-ol]"
1 µg/mL,0.06 µg/mL,0.12 µg/mL,2 µg/mL,0.25 µg/mL,4 µg/mL,> 4 µg/mL,4 µg/mL,"CCCC/C=C/c1ccc(OCc2cn(CC(O)(Cn3cncn3)c3ccc(F)cc3F)nn2)cc1 (stereo not drawn) [Compound 1C-2, (E)-2-(2,4-Difluorophenyl)-1-(4-((4-(n-hex-1-en-1-yl)phenoxy)methyl)-1H-1,2,3-triazol-1-yl)-3-(1H-1,2,4-triazol-1-yl)propan-2-ol]"
0.12 µg/mL,0.06 µg/mL,0.03 µg/mL,8 µg/mL,0.5 µg/mL,32 µg/mL,> 32 µg/mL,64 µg/mL,"C/C=C/c1ccc(OCc2cn(CC(O)(Cn3cncn3)c3ccc(F)cc3F)nn2)cc1 (stereo not drawn) [Compound 1C-4, (E)-2-(2,4-Difluorophenyl)-1-(4-((4-(prop-1-en-1-yl)phenoxy)methyl)-1H-1,2,3-triazol-1-yl)-3-(1H-1,2,4-triazol-1-yl)propan-2-ol]"
2 µg/mL,0.25 µg/mL,0.25 µg/mL,> 128 µg/mL,4 µg/mL,> 128 µg/mL,> 128 µg/mL,> 128 µg/mL,"OC(Cn1cncn1)(Cn1cc(COc2ccccc2)nn1)c1ccc(F)cc1F (stereo not drawn) [Compound 1D-1, 2-(2,4-Difluorophenyl)-1-(4-phenyloxymethyl-1H-1,2,3-triazol-1-yl)-3-(1H-1,2,4-triazol-1-yl)propan-2-ol]"
2 µg/mL,1 µg/mL,0.5 µg/mL,64 µg/mL,4 µg/mL,> 128 µg/mL,> 128 µg/mL,> 128 µg/mL,"O=Cc1ccc(OCc2cn(CC(O)(Cn3cncn3)c3ccc(F)cc3F)nn2)cc1 (stereo not drawn) [Compound 1D-2, 4-((1-(2-(2,4-difluorophenyl)-2-hydroxy-3-(1H-1,2,4-triazol-1-yl)propyl)-1H-1,2,3-triazol-4-yl)methoxy)benzaldehyde]"
4 µg/mL,1 µg/mL,0.5 µg/mL,64 µg/mL,4 µg/mL,> 128 µg/mL,> 128 µg/mL,> 128 µg/mL,"CC(=O)c1ccc(OCc2cn(CC(O)(Cn3cncn3)c3ccc(F)cc3F)nn2)cc1 (stereo not drawn) [Compound 1D-3, 1-(4-(4-Acetylphenyloxy)methyl-1H-1,2,3-triazol-1-yl)-2-(2,4-difluorophenyl)-3-(1H-1,2,4-triazol-1-yl)propan-2-ol]"
> 128 µg/mL,32 µg/mL,32 µg/mL,> 128 µg/mL,> 128 µg/mL,> 128 µg/mL,> 128 µg/mL,> 128 µg/mL,"CC(=O)Nc1ccc(OCc2cn(CC(O)(Cn3cncn3)c3ccc(F)cc3F)nn2)cc1 (stereo not drawn) [Compound 1D-4, 1-(4-(4-Acetylaminophenyloxy)methyl-1H-1,2,3-triazol-1-yl)-2-(2,4-difluorophenyl)-3-(1H-1,2,4-triazol-1-yl)propan-2-ol]"
0.5 µg/mL,0.03 µg/mL,0.12 µg/mL,8 µg/mL,2 µg/mL,64 µg/mL,> 128 µg/mL,64 µg/mL,"Cc1ccc(OCc2cn(CC(O)(Cn3cncn3)c3ccc(F)cc3F)nn2)cc1 (stereo not drawn) [Compound 1D-5, 2-(2,4-Difluorophenyl)-1-(4-(4-methylphenyloxy)methyl-1H-1,2,3-triazol-1-yl)-3-(1H-1,2,4-triazol-1-yl)propan-2-ol]"
